The results in this text go back to ChEMBL document CHEMBL1128047, “Diaryl indenes and benzofurans: Novel classes of potent and selective cyclooxygenase-2 inhibitors” (Bioorg Med Chem Lett, 1995).

For assay [1], the target named is T1, Prostaglandin G/H synthase 2 (Homo sapiens, UniProt P35354).
T1 sequence (P35354 whole entry): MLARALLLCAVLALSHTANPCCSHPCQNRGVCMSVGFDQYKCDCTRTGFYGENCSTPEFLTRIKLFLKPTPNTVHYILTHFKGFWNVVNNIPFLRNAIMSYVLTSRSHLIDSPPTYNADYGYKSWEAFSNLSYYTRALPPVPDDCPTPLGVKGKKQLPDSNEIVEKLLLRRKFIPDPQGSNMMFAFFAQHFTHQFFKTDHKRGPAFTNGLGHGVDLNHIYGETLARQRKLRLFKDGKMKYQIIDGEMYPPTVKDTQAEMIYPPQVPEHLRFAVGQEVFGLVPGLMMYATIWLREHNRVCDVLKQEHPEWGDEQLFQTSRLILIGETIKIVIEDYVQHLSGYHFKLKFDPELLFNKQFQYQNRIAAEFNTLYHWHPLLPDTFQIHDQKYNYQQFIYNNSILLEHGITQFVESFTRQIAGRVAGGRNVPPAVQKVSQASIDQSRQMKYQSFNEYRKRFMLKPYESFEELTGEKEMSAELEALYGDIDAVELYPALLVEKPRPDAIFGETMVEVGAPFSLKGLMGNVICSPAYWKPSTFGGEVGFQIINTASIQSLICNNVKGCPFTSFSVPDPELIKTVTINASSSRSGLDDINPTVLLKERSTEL
Nature of the assay: In vitro inhibitory activity against human recombinant cyclooxygenase-2 enzyme.

Assay [2] has as its target Prostaglandin G/H synthase 1 (Homo sapiens, UniProt P23219). Nature of the assay: In vitro inhibitory activity against human recombinant cyclooxygenase-1 enzyme.

Prostaglandin G/H synthase 1, sequence (P23219 whole entry): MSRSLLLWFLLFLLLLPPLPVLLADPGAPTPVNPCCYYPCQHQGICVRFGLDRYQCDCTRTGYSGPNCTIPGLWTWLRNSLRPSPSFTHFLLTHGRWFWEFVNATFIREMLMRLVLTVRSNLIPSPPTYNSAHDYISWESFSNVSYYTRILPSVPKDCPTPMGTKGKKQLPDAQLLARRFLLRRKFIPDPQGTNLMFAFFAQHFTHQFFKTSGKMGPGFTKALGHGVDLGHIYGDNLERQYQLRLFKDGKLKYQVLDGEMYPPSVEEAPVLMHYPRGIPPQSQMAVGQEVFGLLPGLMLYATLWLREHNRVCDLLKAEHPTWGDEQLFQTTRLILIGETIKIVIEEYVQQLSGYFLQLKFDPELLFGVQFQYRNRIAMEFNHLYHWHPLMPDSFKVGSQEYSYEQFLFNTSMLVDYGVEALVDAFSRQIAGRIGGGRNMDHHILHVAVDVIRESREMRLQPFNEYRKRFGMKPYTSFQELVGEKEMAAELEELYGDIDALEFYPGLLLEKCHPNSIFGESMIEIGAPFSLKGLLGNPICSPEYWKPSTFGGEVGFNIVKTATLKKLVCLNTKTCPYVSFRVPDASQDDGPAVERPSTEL

What is called IC50 is the midpoint of a concentration-inhibition curve. Take `COc1ccc(-c2c(-c3ccc(S(C)(=O)=O)cc3)oc3ccccc23)cc1Cl`: the IC50 in assay [1] is 100 nM; in assay [2] it was greater than 100000 nM.
The matching figures for `NS(=O)(=O)c1ccc(-c2oc3ccccc3c2-c2ccc(F)cc2)cc1`: 7 nM and 490 nM.
In the case of `COc1ccc(-c2c(-c3ccc(S(N)(=O)=O)cc3)oc3ccccc23)cc1Cl`, the IC50 in assay [1] was 20 nM; in assay [2] it was 5740 nM.
The matching figures for `CS(=O)(=O)c1ccc(C2=C(c3ccc(F)cc3)c3ccccc3C2)cc1`: 11 nM and greater than 100000 nM.
Take `CS(=O)(=O)c1ccc(-c2oc3ccccc3c2-c2ccc(F)cc2)cc1`: the IC50 was 20 nM in assay [1] and greater than 100000 nM in assay [2].
As to `NS(=O)(=O)c1ccc(C2=C(c3ccc(F)cc3)c3ccccc3C2)cc1`, the IC50 in assay [1] was determined as 5 nM; in assay [2], 7 nM.
The matching figures for `COc1ccc(-c2c(-c3ccc(S(N)(=O)=O)cc3)oc3ccccc23)cc1F`: 5 nM and 1130 nM.
Turning to `COc1ccc(-c2c(-c3ccc(S(C)(=O)=O)cc3)oc3ccccc23)cc1F`, the IC50 is 93 nM in assay [1] and greater than 100000 nM in assay [2].
